{"source": "ChEMBL document CHEMBL1128468", "about": "“Amino acid side chain descriptors for quantitative structure-activity relationship studies of peptide analogues” (J Med Chem, 1995)", "note": "Peptide text beside a SMILES is read from it."}
{"molecular_target": "T1, Substance-K receptor (Rattus norvegicus, UniProt P16610)", "T1 sequence (P16610 whole entry)": "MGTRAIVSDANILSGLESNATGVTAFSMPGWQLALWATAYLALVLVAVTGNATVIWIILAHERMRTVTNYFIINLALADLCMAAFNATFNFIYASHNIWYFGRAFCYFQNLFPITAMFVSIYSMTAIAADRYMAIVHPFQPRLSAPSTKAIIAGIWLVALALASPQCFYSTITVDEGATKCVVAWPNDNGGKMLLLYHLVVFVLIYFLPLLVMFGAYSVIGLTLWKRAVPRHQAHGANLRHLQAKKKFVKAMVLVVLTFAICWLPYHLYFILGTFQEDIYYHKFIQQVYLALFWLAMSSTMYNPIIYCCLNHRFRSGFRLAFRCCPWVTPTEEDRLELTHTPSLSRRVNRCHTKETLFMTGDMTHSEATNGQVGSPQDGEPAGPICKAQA", "experiment": "Antagonism against Tachykinin receptor 2 in rat vas deferens(RVD)", "type": "functional", "conditions": "read-out: pA2 (converted)", "units": {"Kb": "µM"}}
{"compound": "CSCC[C@H](NC(=O)[C@@H](Cc1c[nH]c2ccccc12)NC(=O)[C@@H](Cc1c[nH]c2ccccc12)NC(=O)[C@@H](NC(=O)[C@@H](Cc1c[nH]c2ccccc12)NC(=O)[C@H](CO)NC(=O)[C@@H](N)CC(=O)O)C(C)C)C(=O)O", "Kb": 1.95}
{"compound": "CSCC[C@H](NC(=O)[C@H](CC(C)C)NC(=O)CNC(=O)[C@@H](Cc1c[nH]c2ccccc12)NC(=O)[C@H](Cc1ccccc1)NC(=O)[C@H](Cc1ccc(O)cc1)NC(=O)[C@@H](N)CC(=O)O)C(=O)O", "Kb": 14.1}
{"compound": "CC(C)[C@H](NC(=O)[C@@H](Cc1c[nH]c2ccccc12)NC(=O)[C@H](Cc1ccc(O)cc1)NC(=O)[C@@H](N)CC(=O)O)C(=O)N[C@H](Cc1c[nH]c2ccccc12)C(=O)N[C@H](Cc1c[nH]c2ccccc12)C(=O)N[C@@H](CCC(=O)O)C(=O)O", "Kb": 0.0309}
{"compound": "H-DYPVWWR-OH", "Kb": 4.37}
{"compound": "CC(C)[C@H](NC(=O)[C@@H](Cc1c[nH]c2ccccc12)NC(=O)[C@H](Cc1ccc(O)cc1)NC(=O)[C@@H](N)CC(=O)O)C(=O)N[C@H](Cc1c[nH]c2ccccc12)C(=O)N[C@H](Cc1c[nH]c2ccccc12)C(=O)N[C@H](Cc1c[nH]c2ccccc12)C(=O)O", "Kb": 0.155}
{"molecular_target": "T2, Substance-K receptor (Mesocricetus auratus, UniProt P51144)", "T2 sequence (P51144 whole entry)": "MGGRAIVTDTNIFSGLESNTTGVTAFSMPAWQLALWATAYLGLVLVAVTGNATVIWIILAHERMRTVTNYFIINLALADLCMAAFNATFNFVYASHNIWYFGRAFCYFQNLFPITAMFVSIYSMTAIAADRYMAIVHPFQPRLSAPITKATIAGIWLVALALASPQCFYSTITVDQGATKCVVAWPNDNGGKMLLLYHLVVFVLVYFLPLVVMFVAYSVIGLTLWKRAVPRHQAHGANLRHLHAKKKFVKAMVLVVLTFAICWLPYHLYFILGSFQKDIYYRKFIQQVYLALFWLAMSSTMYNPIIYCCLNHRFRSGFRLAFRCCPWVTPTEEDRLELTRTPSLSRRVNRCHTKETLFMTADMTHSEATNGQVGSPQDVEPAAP", "experiment": "Antagonist activity against Tachykinin receptor 2 was measured by Hamster isolated trachea(HT) assay.", "type": "functional, tissue-based", "conditions": "read-out: pA2 (converted)", "units": {"Kb": "µM"}}
{"compound": "CSCC[C@H](NC(=O)[C@@H](Cc1c[nH]c2ccccc12)NC(=O)[C@@H](Cc1c[nH]c2ccccc12)NC(=O)[C@@H](NC(=O)[C@@H](Cc1c[nH]c2ccccc12)NC(=O)[C@H](CO)NC(=O)[C@@H](N)CC(=O)O)C(C)C)C(=O)O", "Kb": 6.46}
{"compound": "CSCC[C@H](NC(=O)[C@H](CC(C)C)NC(=O)CNC(=O)[C@@H](Cc1c[nH]c2ccccc12)NC(=O)[C@H](Cc1ccccc1)NC(=O)[C@H](Cc1ccc(O)cc1)NC(=O)[C@@H](N)CC(=O)O)C(=O)O", "Kb": 14.8}
{"compound": "CC(C)[C@H](NC(=O)[C@@H](Cc1c[nH]c2ccccc12)NC(=O)[C@H](Cc1ccc(O)cc1)NC(=O)[C@@H](N)CC(=O)O)C(=O)N[C@H](Cc1c[nH]c2ccccc12)C(=O)N[C@H](Cc1c[nH]c2ccccc12)C(=O)N[C@@H](CCC(=O)O)C(=O)O", "Kb": 0.427}
{"compound": "H-DYPVWWR-OH", "Kb": 17.4}
{"compound": "CC(C)[C@H](NC(=O)[C@@H](Cc1c[nH]c2ccccc12)NC(=O)[C@H](Cc1ccc(O)cc1)NC(=O)[C@@H](N)CC(=O)O)C(=O)N[C@H](Cc1c[nH]c2ccccc12)C(=O)N[C@H](Cc1c[nH]c2ccccc12)C(=O)N[C@H](Cc1c[nH]c2ccccc12)C(=O)O", "Kb": 1.38}
{"compound": "CC(C)[C@H](NC(=O)[C@@H](Cc1c[nH]c2ccccc12)NC(=O)[C@H](CCCCN)NC(=O)[C@@H](N)CC(=O)O)C(=O)N[C@H](Cc1c[nH]c2ccccc12)C(=O)N[C@H](Cc1c[nH]c2ccccc12)C(=O)N[C@@H](CCCCN)C(=O)O", "Kb": 4.17}
{"compound": "CC(C)[C@H](NC(=O)[C@@H](Cc1c[nH]c2ccccc12)NC(=O)[C@H](Cc1ccc(O)cc1)NC(=O)[C@@H](N)CCC(N)=O)C(=O)N[C@H](Cc1c[nH]c2ccccc12)C(=O)N[C@H](Cc1c[nH]c2ccccc12)C(=O)N[C@@H](Cc1ccccc1)C(=O)O", "Kb": 1.74}
{"system": "not listed separately", "experiment": "Biological activity for bradykinin potentiating pentapeptide as the logarithm of the relative activity index compared to the reference molecule (Val-Glu-Ser-Ser-Lys).", "type": "functional", "conditions": "not given"}
{"compound": "C[C@H](N)C(=O)N[C@@H](C)C(=O)N[C@@H](C)C(=O)N[C@@H](C)C(=O)N[C@@H](C)C(=O)O", "Log RAI": -0.1}
{"compound": "H-VAAAK-OH", "Log RAI": -0.1}
{"compound": "H-VWAAK-OH", "Log RAI": 0.04}
{"compound": "H-VEFAK-OH", "Log RAI": 1.57}
{"compound": "H-EKWAP-OH", "Log RAI": 1.3}
{"compound": "H-VKAAK-OH", "Log RAI": 0.11}
{"compound": "H-FEAAK-OH", "Log RAI": 0.3}
{"compound": "H-LEAAK-OH", "Log RAI": 0.4}
{"compound": "H-GEAAK-OH", "Log RAI": -0.52}
{"compound": "H-VAWAA-OH", "Log RAI": 1.43}
{"compound": "H-VKWAP-OH", "Log RAI": 2.35}
{"compound": "H-VESSK-OH", "Log RAI": 0}
{"compound": "H-VEWVK-OH", "Log RAI": 1.71}
{"compound": "H-VEAAP-OH", "Log RAI": 0.18}
{"compound": "H-VESAK-OH", "Log RAI": 0.28}
{"compound": "H-VEWAK-OH", "Log RAI": 2.73}
{"compound": "H-FSPFR-OH", "Log RAI": 0.64}
{"compound": "NCC(=O)NCC(=O)NCC(=O)NCC(=O)NCC(=O)O", "Log RAI": 0}
{"compound": "H-VAAWK-OH", "Log RAI": 0.23}
{"compound": "H-VEGGK-OH", "Log RAI": -1}
{"compound": "H-PGFSP-OH", "Log RAI": 0.9}
{"compound": "H-VEASK-OH", "Log RAI": 0.2}
{"compound": "H-VELAK-OH", "Log RAI": 0.59}
{"compound": "H-VEHAK-OH", "Log RAI": 1.53}
{"compound": "H-AAWAA-OH", "Log RAI": 0.75}
{"compound": "H-VEAAK-OH", "Log RAI": 0.51}
{"compound": "C[C@H](N)C(=O)N[C@@H](C)C(=O)N[C@@H](Cc1ccc(O)cc1)C(=O)N[C@@H](C)C(=O)N[C@@H](C)C(=O)O", "Log RAI": 0.46}
{"compound": "H-VAWAK-OH", "Log RAI": 1.45}
{"compound": "H-VKWAA-OH", "Log RAI": 1.71}
{"compound": "H-RKWAP-OH", "Log RAI": 1.98}
{"compound": "H-RYLPT-OH", "Log RAI": 0.4}
{"molecular_target": "Angiotensin-converting enzyme (Homo sapiens, UniProt P12821)", "sequence (P12821 whole entry)": "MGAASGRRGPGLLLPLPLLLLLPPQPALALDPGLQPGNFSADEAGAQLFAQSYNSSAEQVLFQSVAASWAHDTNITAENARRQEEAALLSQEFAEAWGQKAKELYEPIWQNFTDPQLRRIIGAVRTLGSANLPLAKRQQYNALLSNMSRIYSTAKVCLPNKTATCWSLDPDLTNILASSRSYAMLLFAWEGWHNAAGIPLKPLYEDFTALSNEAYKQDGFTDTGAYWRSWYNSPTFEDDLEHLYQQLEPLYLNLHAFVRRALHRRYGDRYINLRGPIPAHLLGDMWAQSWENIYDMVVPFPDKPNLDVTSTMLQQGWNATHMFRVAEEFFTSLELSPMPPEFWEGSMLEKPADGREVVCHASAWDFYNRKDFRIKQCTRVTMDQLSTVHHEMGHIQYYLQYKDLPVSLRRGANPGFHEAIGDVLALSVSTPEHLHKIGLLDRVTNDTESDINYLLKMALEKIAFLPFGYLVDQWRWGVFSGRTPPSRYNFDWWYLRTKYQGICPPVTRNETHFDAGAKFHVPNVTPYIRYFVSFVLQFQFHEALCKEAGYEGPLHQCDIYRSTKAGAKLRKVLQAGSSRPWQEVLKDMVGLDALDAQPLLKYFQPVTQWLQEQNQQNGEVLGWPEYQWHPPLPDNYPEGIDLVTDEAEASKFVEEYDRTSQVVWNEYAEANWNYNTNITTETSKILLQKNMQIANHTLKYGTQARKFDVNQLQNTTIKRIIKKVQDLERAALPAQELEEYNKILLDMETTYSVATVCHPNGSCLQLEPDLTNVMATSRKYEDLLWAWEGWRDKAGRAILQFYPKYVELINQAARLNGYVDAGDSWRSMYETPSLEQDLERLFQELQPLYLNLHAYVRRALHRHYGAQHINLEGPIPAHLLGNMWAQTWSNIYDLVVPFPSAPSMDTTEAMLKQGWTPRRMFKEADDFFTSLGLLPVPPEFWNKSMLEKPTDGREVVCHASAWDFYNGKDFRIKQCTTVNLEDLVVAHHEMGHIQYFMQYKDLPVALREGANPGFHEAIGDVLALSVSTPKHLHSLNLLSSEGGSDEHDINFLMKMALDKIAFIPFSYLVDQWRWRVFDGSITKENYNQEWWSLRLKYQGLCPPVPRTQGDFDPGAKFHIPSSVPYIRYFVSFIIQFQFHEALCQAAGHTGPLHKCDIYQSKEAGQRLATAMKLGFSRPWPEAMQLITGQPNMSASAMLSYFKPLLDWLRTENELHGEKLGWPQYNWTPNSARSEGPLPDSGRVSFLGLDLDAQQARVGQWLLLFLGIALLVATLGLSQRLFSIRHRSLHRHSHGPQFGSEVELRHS", "experiment": "Biological activity was measured against Angiotensin I converting enzyme", "conditions": "read-out: Log 1/IC50 (converted)", "units": {"IC50": "µM"}}
{"compound": "C[C@H](N)C(=O)NCC(=O)O", "note": "(H-Ala-Gly-OH)", "IC50": 2510}
{"compound": "N=C(N)NCCC[C@H](N)C(=O)N1CCC[C@@H]1C(=O)O", "IC50": 182}
{"compound": "CC(C)[C@H](NC(=O)CN)C(=O)O", "note": "(H-Gly-Val-OH)", "IC50": 4570}
{"compound": "CSCC[C@H](NC(=O)CN)C(=O)O", "IC50": 1410}
{"molecular_target": "T3, Substance-K receptor (Oryctolagus cuniculus, UniProt P79218)", "T3 sequence (P79218 whole entry)": "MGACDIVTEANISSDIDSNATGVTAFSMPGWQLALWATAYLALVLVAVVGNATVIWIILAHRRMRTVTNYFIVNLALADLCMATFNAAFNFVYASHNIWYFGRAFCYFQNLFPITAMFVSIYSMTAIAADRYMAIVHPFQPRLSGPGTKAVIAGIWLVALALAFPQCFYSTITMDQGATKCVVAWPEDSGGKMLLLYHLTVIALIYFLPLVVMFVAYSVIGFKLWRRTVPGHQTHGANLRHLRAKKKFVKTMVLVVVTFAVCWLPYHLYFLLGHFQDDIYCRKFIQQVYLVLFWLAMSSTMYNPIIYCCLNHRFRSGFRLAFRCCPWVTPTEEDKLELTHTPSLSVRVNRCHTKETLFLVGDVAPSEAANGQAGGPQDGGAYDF", "experiment": "Antagonist activity against Tachykinin receptor 2 was measured by Rabbit pulmonary artery(RPA) assay.", "type": "functional", "conditions": "read-out: pA2 (converted)", "units": {"Kb": "µM"}}
{"compound": "CSCC[C@H](NC(=O)[C@@H](Cc1c[nH]c2ccccc12)NC(=O)[C@@H](Cc1c[nH]c2ccccc12)NC(=O)[C@@H](NC(=O)[C@@H](Cc1c[nH]c2ccccc12)NC(=O)[C@H](CO)NC(=O)[C@@H](N)CC(=O)O)C(C)C)C(=O)O", "Kb": 4.79}
{"compound": "CSCC[C@H](NC(=O)[C@H](CC(C)C)NC(=O)CNC(=O)[C@@H](Cc1c[nH]c2ccccc12)NC(=O)[C@H](Cc1ccccc1)NC(=O)[C@H](Cc1ccc(O)cc1)NC(=O)[C@@H](N)CC(=O)O)C(=O)O", "Kb": 100}
{"compound": "CC(C)[C@H](NC(=O)[C@@H](Cc1c[nH]c2ccccc12)NC(=O)[C@H](Cc1ccc(O)cc1)NC(=O)[C@@H](N)CC(=O)O)C(=O)N[C@H](Cc1c[nH]c2ccccc12)C(=O)N[C@H](Cc1c[nH]c2ccccc12)C(=O)N[C@@H](CCC(=O)O)C(=O)O", "Kb": 2.63}
{"compound": "H-DYPVWWR-OH", "Kb": 12.9}
{"compound": "CC(C)[C@H](NC(=O)[C@@H](Cc1c[nH]c2ccccc12)NC(=O)[C@H](Cc1ccc(O)cc1)NC(=O)[C@@H](N)CC(=O)O)C(=O)N[C@H](Cc1c[nH]c2ccccc12)C(=O)N[C@H](Cc1c[nH]c2ccccc12)C(=O)N[C@H](Cc1c[nH]c2ccccc12)C(=O)O", "Kb": 1.62}
{"compound": "CC(C)[C@H](NC(=O)[C@@H](Cc1c[nH]c2ccccc12)NC(=O)[C@H](CCCCN)NC(=O)[C@@H](N)CC(=O)O)C(=O)N[C@H](Cc1c[nH]c2ccccc12)C(=O)N[C@H](Cc1c[nH]c2ccccc12)C(=O)N[C@@H](CCCCN)C(=O)O", "Kb": 100}
{"compound": "CC(C)[C@H](NC(=O)[C@@H](Cc1c[nH]c2ccccc12)NC(=O)[C@H](Cc1ccc(O)cc1)NC(=O)[C@@H](N)CCC(N)=O)C(=O)N[C@H](Cc1c[nH]c2ccccc12)C(=O)N[C@H](Cc1c[nH]c2ccccc12)C(=O)N[C@@H](Cc1ccccc1)C(=O)O", "Kb": 1.66}
